These results are taken from ChEMBL document CHEMBL4261494, “Design, synthesis and biological evaluation of novel Schiff base-bridged tetrahydroprotoberberine triazoles as a new type of potential antimicrobial agents” (Medchemcomm, 2017).

The subject of series [1] is Proteus vulgaris. Format: functional. To be noted: ATCC 13315, 24 h.
Series [2] concerns Salmonella typhi. The experiment in a line: microbe, parasite or virus in culture. The note with it: Salmonella enterica, 24 h.
Series [3] deals with Micrococcus luteus. Format: functional. To be noted: ATCC 4698, 24 h.
Series [4] deals with Escherichia coli. Format: functional. To be noted: DH52, 24 h.
For series [5], the system named is Shigella dysenteriae. It counts as functional. To be noted: 24 h.
Series [6] deals with Staphylococcus aureus. It counts as functional. To be noted: ATCC 25923, 24 h.
In series [7] the test system is Pseudomonas aeruginosa. It counts as functional. To be noted: ATCC 27853, 24 h.
Series [8] concerns Staphylococcus aureus. The experiment in a line: Antibacterial activity against methicillin-resistant Staphylococcus aureus N315 after 5 passages. It counts as functional, organism-based.
The test system of series [9] is Escherichia coli. It counts as functional. To be noted: JM109, 24 h.
In series [10] the test system is Staphylococcus aureus. Format: functional. The note with it: N315, 24 h.
Series [11] has as its system Bacillus spizizenii. It counts as functional. The note with it: ATCC 6633, 24 h.
The test system of series [12] is Candida albicans. Format: functional. To be noted: for MIC: ATCC 10231, 24 h.
The nature of series [13]: Aqueous solubility of the compound in pH 7.4 phosphate buffer at 1 mg after 3 hrs by UV absorption analysis. It counts as physicochemical.
The subject of series [14] is Aspergillus flavus. Format: functional.
The test system of series [15] is Kregervanrija fluxuum. It counts as functional.
The subject of series [16] is Saccharomyces cerevisiae. Format: functional. To be noted: 24 h.
The test system of series [17] is Cyberlindnera jadinii. Format: functional.
Series [18] has as its system DNA. The experiment in a line: Induction of Escherichia coli supercoiled pUC19 DNA cleavage at 0.0125 mM after 16 hrs in absence of Zn2+ by ethidium bromide staining-based agarose gel electrophoresis method. Format: nucleic-acid assay.
The test system of series [19] is Escherichia coli. The series can be described thus: Potency index, ratio of chloromycin MIC to test compound MIC for Escherichia coli JM109. Format: functional.
Series [20] relates to Salmonella typhi. The experiment in a line: Potency index, ratio of chloromycin MIC to test compound MIC for Bacillus typhi. Format: functional, Salmonella enterica subsp. enterica serovar Typhi.

In brackets after ≈: the same amount, converted by molar mass. Activity calls are given as the source filed them. No cut-off for these calls is given here.

`CCn1cc(C(=O)O)c(=O)c2cc(F)c(N3CCNCC3)cc21` [NORFLOXACIN]: the MIC in series [1] amounted to 8 µg/mL (≈ 25.1 µM); in series [2], 4 µg/mL (≈ 12.5 µM); in series [3], 4 µg/mL (≈ 12.5 µM); in series [4] it was 1 µg/mL (≈ 3.13 µM); in series [5], 4 µg/mL (≈ 12.5 µM); in [6], 0.5 µg/mL (≈ 1.57 µM). Further, the MIC in series [7] is 16 µg/mL (≈ 50.1 µM); in series [9], 1 µg/mL (≈ 3.13 µM); in series [10], 8 µg/mL (≈ 25.1 µM); in series [11], 4 µg/mL (≈ 12.5 µM). Further, the outcome in series [8] was inactive.
On to `COc1cc(/C=N/n2cnnc2)c2c(c1OCc1ccc([N+](=O)[O-])cc1)CN1CCc3cc4c(cc3C1C2)OCO4` (stereo unspecified), for which the MIC in series [1] turned out to be 512 µg/mL (≈ 923 µM); in [2], 4 µg/mL (≈ 7.21 µM); in series [3], 2 µg/mL (≈ 3.61 µM); in series [4], 512 µg/mL (≈ 923 µM); in series [5], 64 µg/mL (≈ 115 µM); in [6] it was 512 µg/mL (≈ 923 µM). Also, the MIC is 64 µg/mL (≈ 115 µM) in [7], 128 µg/mL (≈ 231 µM) in series [9], 16 µg/mL (≈ 28.9 µM) in series [10] and 256 µg/mL (≈ 462 µM) in series [11].
`COc1cc(/C=N/n2cnnc2)c2c(c1OCc1cccc(F)c1)CN1CCc3cc4c(cc3C1C2)OCO4` (stereo unspecified): the MIC was determined as 64 µg/mL (≈ 121 µM) in series [1]; 512 µg/mL (≈ 971 µM) in series [2]; 32 µg/mL (≈ 60.7 µM) in series [3]; 256 µg/mL (≈ 485 µM) in series [4]; 256 µg/mL (≈ 485 µM) in series [5]; 256 µg/mL (≈ 485 µM) in series [6]. In addition, the MIC in series [12] is 0.5 µg/mL (≈ 0.948 µM); in series [7], 16 µg/mL (≈ 30.3 µM); in series [9], more than 512 µg/mL; in [10], 512 µg/mL (≈ 971 µM); in [11], 512 µg/mL (≈ 971 µM).
As usually defined, the solubility is the dissolved amount per volume that the medium holds. A higher solubility goes with much dissolved substance. `COc1cc(C=O)c2c(c1O)CN1CCc3cc4c(cc3C1C2)OCO4` (stereo unspecified): the MIC in [1] turned out to be 64 µg/mL (≈ 181 µM); in series [2] it was 2 µg/mL (≈ 5.66 µM); in [3], 2 µg/mL (≈ 5.66 µM); in [4] it was 256 µg/mL (≈ 724 µM); in series [5] it was 512 µg/mL (≈ 1450 µM); in [6] it was 128 µg/mL (≈ 362 µM). Moreover, the MIC in [7] stood at 16 µg/mL (≈ 45.3 µM); in [9], 256 µg/mL (≈ 724 µM); in series [10] it was 256 µg/mL (≈ 724 µM); in [16], 1 µg/mL (≈ 2.83 µM); in series [11] it was 32 µg/mL (≈ 90.6 µM). In series [13], this compound displayed a solubility at 3 h of 79 µg/mL (≈ 224 µM). The result in series [12] (ATCC 10231), in [14] (ATCC 204304), in series [15] (ATCC 9888) and in series [17] (ATCC 9950) was inactive.
For `CCOc1c(OC)cc(/C=N/n2cnnc2)c2c1CN1CCc3cc4c(cc3C1C2)OCO4` (stereo unspecified), the MIC in series [1] came to 32 µg/mL (≈ 71.5 µM); in [2], 256 µg/mL (≈ 572 µM); in [3], 16 µg/mL (≈ 35.8 µM); in [4], 512 µg/mL (≈ 1140 µM); in [5], 512 µg/mL (≈ 1140 µM); in [6] it was 256 µg/mL (≈ 572 µM). In addition, the MIC is 256 µg/mL (≈ 572 µM) in series [7], 256 µg/mL (≈ 572 µM) in series [9], 8 µg/mL (≈ 17.9 µM) in [10] and 128 µg/mL (≈ 286 µM) in [11].
For the compound `COc1cc(/C=N/n2cnnc2)c2c(c1OCc1ccc(F)cc1)CN1CCc3cc4c(cc3C1C2)OCO4` (stereo unspecified), the MIC in series [1] is 128 µg/mL (≈ 243 µM); in [2], 4 µg/mL (≈ 7.58 µM); in series [3], 2 µg/mL (≈ 3.79 µM); in series [4] it was 16 µg/mL (≈ 30.3 µM); in [5], 16 µg/mL (≈ 30.3 µM); in series [6], 32 µg/mL (≈ 60.7 µM). Besides, the MIC in series [7] was found to be 8 µg/mL (≈ 15.2 µM); in series [9], 32 µg/mL (≈ 60.7 µM); in [10], 8 µg/mL (≈ 15.2 µM); in series [11] it was 32 µg/mL (≈ 60.7 µM). This compound also had a solubility at 3 h in series [13] of 185 µg/mL (≈ 351 µM).
On to `COc1ccc2cc3[n+](cc2c1OC)CCc1cc2c(cc1-3)OCO2` [BERBERINE], for which the MIC is more than 512 µg/mL in series [3]; more than 512 µg/mL in [4]; 256 µg/mL in [5]; 512 µg/mL in [6]; 256 µg/mL in series [7]; 128 µg/mL in series [10]. This compound also returned an MIC in [11] of more than 512 µg/mL. The solubility at 3 h in series [13] turned out to be 85 µg/mL. In addition, the outcome in [18] was inactive.
As for `CCCCCCOc1c(OC)cc(/C=N/n2cnnc2)c2c1CN1CCc3cc4c(cc3C1C2)OCO4` (stereo unspecified), the MIC in [1] stood at 16 µg/mL (≈ 31.8 µM); in [2] it was 2 µg/mL (≈ 3.97 µM); in series [3] it was 16 µg/mL (≈ 31.8 µM); in series [4], 32 µg/mL (≈ 63.5 µM); in series [5] it was 8 µg/mL (≈ 15.9 µM); in series [6], 8 µg/mL (≈ 15.9 µM). The MIC in [12] was 2 to 32 µg/mL (≈ 3.97 to 63.5 µM); in [7], 32 µg/mL (≈ 63.5 µM); in [9], 4 µg/mL (≈ 7.94 µM); in series [14] (ATCC 204304, 24 h), 2 to 32 µg/mL (≈ 3.97 to 63.5 µM); in series [15] (ATCC 9888, 24 h), 2 to 32 µg/mL (≈ 3.97 to 63.5 µM); in [10], 32 µg/mL (≈ 63.5 µM). Besides, the MIC is 2 to 32 µg/mL (≈ 3.97 to 63.5 µM) in series [16]; 2 to 32 µg/mL (≈ 3.97 to 63.5 µM) in series [17] (Williopsis jadinii, ATCC 9950, 24 h); 8 µg/mL (≈ 15.9 µM) in series [11]. The concentration in solution in series [13] (solubility at 3 h) was 442 µg/mL (≈ 878 µM). For the same compound, the Ratio in [19] came out at 8; in [20] it was 16.
